The values below come from patent publication US7414068B2, “Benzopyran derivatives substituted with secondary amines including tetrazole, method for the preparation thereof and pharmaceutical compositions containing them” (Dongbu Hannong Chemical Co., Ltd., priority 2002, dated 2008).

Molecules are shown by their SMILES.

One assay deals with isolated rat aorta. The assay is described as follows: Vasodilating effect on blood vessel excised from rats (methoxamine-constricted aorta). The note with it: isolated rat aorta constricted with methoxamine (3 μM); read-out: Concentration for inhibition of constriction induced by methoxamine in rat arota (IC50). Summed up: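 Endothelium-denuded rat thoracic aortic rings (3 mm) in Krebs-Henseleit buffer, 37 °C, carbogen, 2 g resting tension, primed twice with 10^−5 M phenylephrine. After maximal contraction with 3×10^−6 M methoxamine, compounds added cumulatively at 1, 3, 10, 30 μM. IC50 = concentration giving 50% relaxation of maximal constriction, by linear regression.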

Assay [1] deals with isolated ischemic rat heart. The assay can be described thus: Cardioprotective effect in ischemic heart models of rats (Langendorff). The note with it: 10 μM. Summed up: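 Langendorff-perfused male rat hearts (Krebs-Henseleit, 85 mmHg, 37 °C) pretreated 10 min with compound or vehicle (0.04% DMSO), then 30 min global ischemia and 30 min reperfusion. Read-outs: LVDP, HR, CF, rate-pressure product, time to contracture (first 5 mmHg EDP rise), LDH release.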

The subject of a further assay is cortical neuron cells. The assay can be described thus: Protective effect on hydrogen peroxide induced neuronal cell injury. In kind it is cell-based. The note with it: hydrogen peroxide 30 μM.
In assay [2] the test system is A7r5 (Rat thoracic aorta smooth muscle cell line, ATCC). The assay can be described thus: Inhibitory effect on accumulation of reactive oxygen species induced by hydrogen peroxide (DCF fluorescence). Type of assay: cell-based. The note with it: hydrogen peroxide 50 μM. How it is done:
To measure reactive oxygen species, H2DCFDA (2′,7′-dichlorodihydrofluorescein diacetate, Molecular Probes, Eugene, Oreg., USA) was used. If H2DCFDA, nonpolar material is transferred through cell membrane, it is changed to H2DCF (2′,7′-dichlorodihydrofluorescein), material impermeable to membrane by intracellular esterase. H2DCF is changed to high fluorescent DCF (2′,7′-dichlorofluorescein) by low fluorescent peroxidated oxygen or hydroxyl radical. H2DCFDA solution (10 mM) dissolved in DMSO was used before the experiment. A7r5 (Rat thoracic aorta smooth muscle cell line, ATCC), as smooth muscle cell was incubated in DMEM (Dulbecco's Modified Eagle's Medium) containing 10% of FBS (fetal bovine serum). Thereafter, the cell was incubated in 48 well plate for two days, then was incubated in serum-free DMEM for 24 hours to use for experiment. Krebs-linger buffer (Krebs-Ringer (K-R), 99.01 mM NaCl, 4.69 mM KCl, 1.87 mM CaCl2, 1.2 mM MgSO4, 1.03 mM K2HPO4, 25 mM NaHCO3, 20 mM Hepes, 11.1 mM D-glucose, pH 7.4) was used for washing and process of cell monolayers. After cell monolayers media was removed, each of test compounds (0.2 ml) was pre-treated to media, then incubated at 37° C. for 15 min. Final concentration was 50 μM, hydrogen peroxide was added. The media was allowed to stand for 30 min. The said solution from media was removed. The media was washed one time. H2DCFDA 20 μM was added to the media. The media was allowed to stand for 30 min. the media was washed two times. Thereafter, oxidation of H2DCFDA was measured by Fluorescence reader (FL600, Biotech Instruments, 485 nm excitation, 530 nm emission).

As to `CC1(C)Oc2ccc(C#N)cc2[C@@H](NC(=NC#N)Nc2ccc(Cl)cc2)[C@@H]1O` [BMS-180448, reference compound], the IC50 with isolated rat aorta was determined as 1380 nM. Moreover, in assay [1] (after 30 min global ischemia and reperfusion), the “EDP (mmHg)” value turned out to be 16.5 mmHg. Also, the “LDH (u/g)” value in assay [1] (reperfusion LDH release) came to 17.2 u/g. In assay [1] (reperfusion, % of pre-treatment DP), the “LVDP X HR (%)” value was 67.6%. Further, in assay [1] (time to contracture during global ischemia), the “TTC” value was found to be 27.8 min. For the same molecule, the “Inhibition(%) of hydrogen peroxide induced neuronal cell injury” value (from here on “Inhibition(%)”) with cortical neuron cells (Addition 30 μM) is −5%.
As for `CC(CN1c2ccccc2Sc2ccccc21)N(C)C` (centres unmarked) [Promethazine], the “Inhibition(%)” value with cortical neuron cells (Addition 5 μM) worked out at 97%.
With `CCCOC(=O)c1cc(O)c(O)c(O)c1` [Propyl gallate, reference compound], the “Inhibitory(%) against reactive oxygen species accumulation” value in assay [2] (addition 3 μM) is 57%; in assay [2] (addition 10 μM), 94%; in assay [2] (addition 30 μM), 108%. Moreover, the “Inhibition(%)” value in the assay on cortical neuron cells (Addition 10 μM) amounted to 94%.
